Laboratory results published in patent publication US20080196124A1, “Plant Growth Hormone Regulated Transcription Factors and Promoters Thereof” (DONALD DANFORTH PLANT SCIENCE CENTER, priority 2006, published 2008).

Assays:
[1] = tested on: atmyb77 T-DNA insertion lines (KO); experiment: Lateral root number with exogenous auxin, atmyb77 T-DNA insertion line; type: in vivo, Arabidopsis; conditions: mean ± SE
Protocol: (§1) FIG. 4. Reduced AtMyb77 expression reduces lateral root growth sensitivity to exogenous auxin. (A) atmyb77-1 T-DNA insertion line and wild-type Arabidopsis Col-0 grown on MS plates with no added auxin have the same number and length of lateral roots. (B) atmyb77-1 has more lateral roots than wildtype Col-0 with 100 nM IAA and (C) 80 nM 2, 4-D. (D) Mean lateral root numbers per primary root under control conditions and with 100 nM IAA and 80 nM 2, 4-D (n=100±SE).
(§2) The effects of exogenous auxin on lateral root growth under control conditions were also tested in wild-type and atmyb77-1 plants. Wildtype Col-0 and atmyb77-1 plants had the same number of lateral roots and the same primary root length under control conditions (FIGS. 4A and D; Table I). […] Primary root length was the same between lines for each treatment.

wildtype (Col-0) = experiment: Lateral root number with exogenous auxin, wildtype; type: in vivo, Arabidopsis; conditions: for lateral root number: Col-0, mean ± SE
Protocol: as §1, §2

wildtype Col-0 roots = experiment: Northern blot of auxin regulated genes in roots, wildtype; type: in vivo, Arabidopsis; conditions: 20 μM IAA
Protocol: (§3) FIG. 6. Northern blots of Arabidopsis wildtype Col-0 and T-DNA insertion line atmyb77-1 roots grown in hydroponic conditions for 7 weeks and treated with 20 μM IAA for 0, 6, 30 and 54 hours. Northern blots were probed with 3′ probes from auxin regulated and related genes. Ribosomal RNA loading control shown at bottom.
(§4) Plants were initially grown in nutrient solutions using a rock wool system (Gibeaut et al. 1997) for six weeks at 22° C. with 8 h daylight at 200 μmol.m-2.s-1. Three weeks after germination, plants were transferred to hydroponic tanks containing nutrient medium (Shin et al. 2005) with aeration. Plants were then exposed to a final concentration of 20 μM of IAA (Sigma-Aldrich, St.Louis, Mo.) in the nutrient solutions. After 6 h, 30 h and 54 h roots were harvested. For probes, cDNA fragments were amplified from Arabidopsis cDNA by PCR using primers for the indicated genes as follows: […]
(§5) The amplified cDNAs were labeled with α-^32P-dCTP (Amersham) and Northern blot analyses were performed as described (Shin et al. 2005).

[2] = tested on: AtMyb77 promoter::GUS plants; experiment: AtMyb77 promoter::GUS reporter expression in roots after auxin; type: in vivo, Arabidopsis; conditions: 100 nM IAA, lateral roots, one day
Protocol: To localize GUS activity, plants were stained with 1 mM X-Gluc solution 4 days after germination (DAG) (Vicente-Agullo et al. 2004) and were de-stained (Malamy and Benfey 1997). The pictures were taken using a Nikon SMZ1500 dissecting microscope (Nikon). Plants were transferred 3-DAG to full nutrient (1.75 mM KCl) or to low K plates (10 μM KCl), and then grown for 7 days before staining. For auxin treatment, plants were transferred 6-DAG to full nutrient plates (no auxin), and to plates containing 100 nM of IAA, or 80 nM of 2, 4-D, and then grown for one day before staining. Incubation time was 60 minutes and protein concentration was calculated with the CB-X kit (GenoTech).
Expression of AtMyb77-promoter driven GUS expression was detected in roots (FIG. 3) and leaves of seedlings. In roots the expression was localized to the inner cell layers of the primary root including the stele (FIGS. 3A and B). At the tip of primary roots expression of GUS was also seen in the root cap cells (FIG. 3A). Throughout the root expression was visible in the vascular tissue. An interesting pattern of expression was observed during the development of lateral roots. Initially when the lateral roots emerge, the reporter gene expression was observed above and below the emerging lateral root primordia in the cortical cells (FIG. 3C). […]

[3] = tested on: atmyb77-1 T-DNA insertion line roots; experiment: Northern blot of auxin regulated genes in roots, atmyb77-1; type: in vivo, Arabidopsis; conditions: 20 μM IAA; 6, 30, 54 h; atmyb77-1 roots
Protocol: as §3, §4, §5

[4] = tested on: mutated MRE (mMRE) element; experiment: Gel mobility shift assay, mutated MRE; type: binding; conditions: band shift
Protocol: (§6) An AtMyb77 cDNA fragment was amplified by PCR and cloned into the Ndel and SacI sites of the pET28 vector (Novagen, Madison, Wis., USA). The primer set used for the amplification was 5′-[…]-3′ (SEQ ID NO:37) and 5′-[…]-3′ (SEQ ID NO:38). The resulting in-frame fusion was transformed into Escherichia coli strain BL21 (DE3). Overexpression of AtMyb77::His was induced by 0.5 mM isopropyl-β-D-thiogalactoside at 20° C. for 4 h. Bacteria were pelleted after the induction period, suspended in lysis buffer (50 mM NaH2PO4H2O, 300 mM NaCl, 10 mM Imidazole) and subjected to sonication on ice for 1 min. Bacterial lysates were then centrifuged. The His tagged fusion protein was recovered by affinity chromatography on Nickel-NTA (Sigma-Aldrich, St. Louis, Mo., USA) and the purified protein was used for gel mobility shift assays.
(§7) Both strands of the MRE element ([…]; SEQ ID NO:39) (Hoerena et al. 1998), the MYBcore element ([…]; SEQ ID NO:40) (Larsen 2003), mutated MRE (mMRE) element ([…]; SEQ ID NO:41), mutated MYBcore (mMYBcore) element ([…]; SEQ ID NO:42) and GCC box ([…]; SEQ ID NO:43; Fujimotoa et al., 2000) were synthesized and were end-labeled with […] (Amersham, Pittsburgh, Pa., USA) by T4 polynucleotide kinase (New England Biolabs, Beverly, Mass., USA) at 37° C. for 1 h. […]

[5] = tested on: mutated MYBcore (mMYBcore) element; experiment: Gel mobility shift assay, mutated MYBcore; type: binding; conditions: band shift
Protocol: as §6, §7

MRE element = experiment: Gel mobility shift assay, MRE; type: binding, Arabidopsis; conditions: 100 ng AtMyb77::His, 3x repeat labeled oligo
Protocol: as §6, §7

GCC box = experiment: Gel mobility shift assay, GCC box; type: binding; conditions: band shift
Protocol: as §6, §7

MYBcore element = experiment: Gel mobility shift assay, MYBcore; type: binding, Arabidopsis; conditions: 100 ng AtMyb77::His, 3x repeat labeled oligo
Protocol: as §6, §7

## O=C(O)COc1ccc(Cl)cc1Cl [2,4,-D, 2,4-dichlorophenoxyacetic acid]
[1]; 80 nM 2,4-D
  lateral root number: 8.80 ± 0.19b
Wildtype (Col-0); 80 nM 2,4-D
  lateral root number: 7.41 ± 0.20 days
Wildtype (Col-0); seedlings treated with 80 nM 2,4-D
  lateral root formation, wildtype compared to atmyb77-1: reduced significantly more in the wildtype

## O=C(O)Cc1c[nH]c2ccccc12 [IAA, indoleacetic acid]
Wildtype Col-0 roots; 6, 30, 54 h vs 0 h, wild-type roots
  expression of IAA19, IAA1, IAA28, AUX1, SAUR-AC1, AXR1, ARF7, AtMyb77 and Tir1: Clear induction of expression
Wildtype Col-0 roots; after 54 hours, wildtype roots
  PIN1 expression: not induced
[1]; 100 nM IAA
  lateral root number: 13.57 ± 0.38c
[2]
  AtMyb77 promoter driven GUS expression: increase in the expression
[3]
  induction of auxin regulated genes: greatly attenuated or abolished
Wildtype (Col-0); 100 nM IAA
  lateral root number: 10.05 ± 0.55b
Wildtype (Col-0); seedlings treated with 100 nM IAA
  lateral root formation, wildtype compared to atmyb77-1: reduced significantly more in the wildtype

## AtMyb77: HIS tagged AtMyb77 R2R3 Myb transcription factor protein (SEQ ID NO:10) purified from E. coli
[4]
  binding to MRE with single nucleotide change: eliminated the interaction and binding
[5]
  binding to MYBcore with single nucleotide change: eliminated the interaction and binding
MRE element
  binding to MRE sequence (band shift): bound
GCC box
  binding to ethylene binding element (GCC): no interaction
MYBcore element
  binding to MYBcore sequence (band shift): bound
